{
  "source": "patent EP3184514A1",
  "about": "“AUTOPHAGY INHIBITORS” (Deutsches Krebsforschungszentrum, priority 2015, dated 2017)",
  "key": {"LC3 proteins": {"molecular_target": "LC3 proteins", "assay": "ITC and NMR titrations", "type": "binding", "details": "by ITC and NMR", "experimental": "All ITC experiments were performed at 25 °C using a VP-ITC microcalorimeter (MicroCal Inc, MA, USA) and analyzed with the ITC-Origin 7.0 software (MicroCal Inc.) based on a \"one-site binding\" reaction. […] Dilution heat of both compounds was measured upon titration of the stocks into buffer. All experiments were performed on a Bruker Avance spectrometer operating at a proton frequency of 500, 600 and 700 MHz at 298 K."}, "LC3B [1]": {"molecular_target": "T1, LC3B (Homo sapiens, UniProt Q9GZQ8)", "T1 construct": "made in house; host or cells: E. coli Rosetta (DE3)", "assay": "AlphaScreen interaction displacement assay (GST-LC3B / biotin-LIRtide)", "type": "binding", "details": "Table 1-a, n.e. means no effect", "experimental": "The AlphaScreen assay contained 50 mM Tris (pH 7.5), 100 mM NaCl, 0.01% Tween 20, 2 mM DTT, 1 % DMSO and 2-30 nM GST-LC3B and biotin-LIRtide 2-30 nM. The concentrations of GST-LC3B and biotin-LIRtide were experimentally chosen from a cross-titration assay exploring the different combinations of for each batch of protein used and when a new batch of buffer was prepared.\nA gene encoding for human LC3B protein inserted in a pET-GST expression vector was used as a template. Rosetta (DE3) competent cells were transformed by started procedure, plated on an LB agar plate with ampicillin (100 µg/ml) and left overnight at 37 °C. Overnight culture was prepared from a single colony and shaken at 180 rpm at 37 °C. LB medium with ampicillin was inoculated with overnight culture (10 ml per 500 ml of LB) and shaken until the optical density at 600 nm (OD600) reached a value of approximately 0.6. Protein expression was then induced with 400 µM IPTG and further incubated for 4 hours. Bacterial culture was centrifuged for 20 minutes at 6000 rpm at 4 °C. The pellet was then resuspended in lysis buffer (20 mM TRIS-HCl pH 7.5, 10 mM EDTA, 5 mM EGTA, 150 mM NaCl, 0.5 % NP40, 1 % Triton X-100, 1 mM DTT, 2 mg/ml lysozyme, 0.05 U/µl benzonase, 1x protease inhibitor cocktail). Lysate was then stored at -20 °C over night. Sample was thawed in water bath and sonicated on ice (40 % amplitude, 30 seconds pulse/30 seconds pause cycle). Lysate was centrifuged at 10000xg at 4 °C for half an hour. Meanwhile, 500 µl of glutathione sepharose beads was equilibrated with lysis buffer and then added to the supernatant. The mixture was incubated and rotated at room temperature for 2 hours. After binding of the protein to the beads, beads were spun down at 500xg at 4 °C for 5 minutes. Pellet was then washed with cold wash buffer at least four times (20 mM Tris-HCl pH 7.5, 10 mM EDTA, 5 mM EGTA, 150 mM NaCl, 1 mM DTT), dried and stored in 5 % glycerol at 4 °C."}, "LC3B [2]": {"test_system": "LC3B", "assay": "cellular autophagy screening: LC3B spots by immunocytochemistry and automated confocal imaging", "type": "cell-based", "details": "relative to negative DMSO control, 100 µM, 1 hour; for LC3B inhibition cell based Fold increase of LC3B spots [DMSO control 1.0]: Table 1-a, n.e. means no effect", "experimental": "For screening purposes, cells were seeded in 384 well plates and left over night for attachment.\nAfterwards, medium was removed and 4 % (w/v) paraformaldehyde (PFA) in PBS buffer was added to the cells for 20 minutes, incubated at room temperature. Cells were permeabilized with 0.1 % (v/v) Triton X-100 for 10 min at room temperature and washed with PBS. Cells were blocked with 3 % (w/v) bovine serum albumin (BSA) in PBS for 45 minutes at 37 °C and then incubated with anti-LC3B (PM036, MBL) or anti-p62 (PM045 or M162-3, MBL) primary antibody diluted in 0.3 % BSA (1:2000 or 1:500) for 1.5-2 hours at 37 °C. Cells were washed three times with PBS.\n384 well plates were then analyzed with an automated confocal microscope Opera (PerkinElmer) enabling high throughput high content screening image analysis. […] A water immersion 60x objective was used for optical slicing and stacking (5x0.5 µm stacks). […] Signal was detected with a fast gated CCD camera. Acapella software (PerkinElmer) is an algorithm based high content imaging and analysis software used in multi-parametric multiplex assays. Acapella was used to follow cell viability (i.e. number of cells) and the number of LC3B and p62 spots per cell.\nThe LC3B protein is a ubiquitin-like protein that can be conjugated to phosphatidylethanolamine (PE) in the membrane of the incipient autophagosome. The nonlipidated and lipidated forms are usually referred to as LC3B-I and LC3B-II, respectively. […] Autophagic flux is often inferred on the basis of LC3B-II turnover, measured by western blot (WB) or immunofluorescence (IF) in the presence and absence of lysosomal degradation. […] Lysosomal degradation can be prevented e.g. through the use of compounds that neutralize the lysosomal pH such as Bafilomycin A1 (BafA1) or chloroquine (CQ). […] An additive or supra-additive effect in LC3B-II levels (WB) and LC3B-positive punctae numbers (IF) may indicate that the treatment enhances autophagic flux. […] This assay can be complemented by simultaneous monitoring of autophagosomal substrates or autophagosomal substrate receptors (e.g. SQSTM1/p62) by WB and/or IF. For example, an increase in LC3B-II levels in combination with the accumulation of SQSTM1/p62 is indicative of a blockage of the autophagy pathway at terminal stages."}, "U2OS cells": {"test_system": "U2OS cells", "assay": "autophagic flux by confocal microscopy and western blotting", "type": "cell-based, Human", "details": "100 nM, alone", "experimental": "[…]. After harvesting, cells were lysed with radioimmunoprecipitation assay (RIPA) buffer (50 mM Tris-HCl, pH 7.5, 150 mM NaCl, 0.5 % deoxycholate, 1 % Triton X-100, 0.1 % SDS and 1x protease inhibitors) and left on ice for 30 minutes. Cell lysates were clarified by centrifugation at 10000xg for 20 min at 4 °C. Protein concentrations of the supernatants were determined by BCA assay and the absorbance was measured at 562 nm. SDS-PAGE and WB was performed.\nFor screening purposes, cells were seeded in 384 well plates and left over night for attachment. […]. For controls, cells were treated with 250 nM torin and/or 100 nM BafA1 for 2 hours.\nAfterwards, medium was removed and 4 % (w/v) paraformaldehyde (PFA) in PBS buffer was added to the cells for 20 minutes, incubated at room temperature. Cells were permeabilized with 0.1 % (v/v) Triton X-100 for 10 min at room temperature and washed with PBS. Cells were blocked with 3 % (w/v) bovine serum albumin (BSA) in PBS for 45 minutes at 37 °C and then incubated with anti-LC3B (PM036, MBL) or anti-p62 (PM045 or M162-3, MBL) primary antibody diluted in 0.3 % BSA (1:2000 or 1:500) for 1.5-2 hours at 37 °C. Cells were washed three times with PBS. Secondary Alexa Fluor 488 - labeled antibodies (A-11008, Invitrogen) were diluted in 0.3 % BSA (1:2500) and incubated on cells for 15 minutes at 37 °C. Cells were washed once with PBS, incubated with DRAQ5 (#4084, Cell Signaling) diluted in PBS (1:5000) for 10 minutes and washed three times with PBS.\n384 well plates were then analyzed with an automated confocal microscope Opera (PerkinElmer) enabling high throughput high content screening image analysis. […] Signal was detected with a fast gated CCD camera. […]\nThe LC3B protein is a ubiquitin-like protein that can be conjugated to phosphatidylethanolamine (PE) in the membrane of the incipient autophagosome. […] Autophagic flux is often inferred on the basis of LC3B-II turnover, measured by western blot (WB) or immunofluorescence (IF) in the presence and absence of lysosomal degradation. […]"}},
  "note": "Where a name gives a salt, the structure may show the parent alone.",
  "data": [
    {"smiles": "CO[C@@H]1[C@@H](OC(N)=O)[C@@H](O)[C@H](Oc2ccc3c(O)c(NC(=O)c4ccc(O)c(CC=C(C)C)c4)c(=O)oc3c2C)OC1(C)C", "note": "[Compound 2-0, Novobiocin Sodium Salt]", "values": [
      {"measurement": "Kd", "setting": "LC3 proteins", "result": "5 to 50", "unit": "µM"}
    ]},
    {"smiles": "COC(=O)[C@H](CC(C)C)NC(=O)c1cccc(CSC2=NCN(Cc3cccnc3)CN2)c1", "note": "[Compound I-12, methyl(3-(((5-(pyridin-3-ylmethyl)-1,4,5,6-tetrahydro-1,3,5-triazin-2-yl)thio)methyl)benzoyl)leucinate]", "values": [
      {"measurement": "IC50", "setting": "LC3B [1]; read-out: LC3B inhibition cell free IC50", "result": 8.9, "unit": "µM"},
      {"measurement": "LC3B inhibition cell based Fold increase of LC3B spots [DMSO control 1.0]", "setting": "LC3B [2]", "result": 5.0}
    ]},
    {"smiles": "Fc1ccc(CN2CN=C(SCc3ccc(Br)cc3)NC2)cc1", "note": "[Compound I-14, 6-((4-bromobenzyl)thio)-3-(4-fluorobenzyl)-1,2,3,4-tetrahydro-1,3,5-triazine]", "values": [
      {"measurement": "LC3B inhibition cell free IC50", "setting": "LC3B [1]", "result": "n.e"},
      {"measurement": "LC3B inhibition cell based Fold increase of LC3B spots [DMSO control 1.0]", "setting": "LC3B [2]", "result": 5.8}
    ]},
    {"smiles": "Fc1ccc(CN2CN=C(SCc3ccc(Cl)cc3)NC2)cc1", "note": "[Compound I-15, 6-((4-chlorobenzyl)thio)-3-(4-fluorobenzyl)-1,2,3,4-tetrahydro-1,3,5-triazine]", "values": [
      {"measurement": "LC3B inhibition cell free IC50", "setting": "LC3B [1]", "result": "n.e"},
      {"measurement": "LC3B inhibition cell based Fold increase of LC3B spots [DMSO control 1.0]", "setting": "LC3B [2]", "result": 5.9}
    ]},
    {"smiles": "Fc1ccc(CN2CN=C(SCc3cccc(Oc4ccccc4)c3)NC2)cc1", "note": "[Compound I-16, 3-(4-fluorobenzyl)-6-((3-phenoxybenzyl)thio)-1,2,3,4-tetrahydro-1,3,5-triazine]", "values": [
      {"measurement": "LC3B inhibition cell free IC50", "setting": "LC3B [1]", "result": "n.e"},
      {"measurement": "LC3B inhibition cell based Fold increase of LC3B spots [DMSO control 1.0]", "setting": "LC3B [2]", "result": "n.e."}
    ]},
    {"smiles": "Fc1ccc(CN2CN=C(SCc3ccc(Br)cc3)NC2)cc1F", "note": "[Compound I-17, 6-((4-bromobenzyl)thio)-3-(3,4-difluorobenzyl)-1,2,3,4-tetrahydro-1,3,5-triazine]", "values": [
      {"measurement": "LC3B inhibition cell free IC50", "setting": "LC3B [1]", "result": "n.e"},
      {"measurement": "LC3B inhibition cell based Fold increase of LC3B spots [DMSO control 1.0]", "setting": "LC3B [2]", "result": 4.2}
    ]},
    {"smiles": "CO/C1=C\\C(C)=C\\[C@@H](C)[C@@H](O)[C@@H](C)C/C(C)=C/C=C/[C@H](OC)[C@@H]([C@@H](C)[C@@H](O)[C@H](C)[C@@]2(O)C[C@@H](O)[C@H](C)[C@@H](C(C)C)O2)OC1=O", "note": "[bafilomycin A1, reference compound]", "values": [
      {"measurement": "amount of LC3B-positive spots and lipidated LC3B (LC3B-II)", "setting": "U2OS cells", "result": "increased"},
      {"measurement": "LC3B inhibition cell based Fold increase of LC3B spots [DMSO control 1.0]", "setting": "LC3B [2]", "result": 5.5},
      {"measurement": "LC3B Inhibition cell based Fold increase of LC3B spots", "setting": "LC3B [2]; Table 2a", "result": 5.5}
    ]}
  ]
}
